Columns and labels:
[1] = tested on: Huh7-BB7 cells; assay: Selection of replicon variants with reduced susceptibility, Study B; assay type: cell-based, HCV genotype 1b; settings: prolonged treatment
Method: Huh7-BB7 cells are plated at a density of 2-3×10^5 cells per T25 flask and cultured in DMEM medium with 2% FCS in the absence of G418. The cells are treated with DMSO as a control, or HCV-796 alone at 40 and 80 nM, or SCH 503034 alone at 200, 400, 600 and 800 nM, or a combination of HCV-796 and SCH 503034 at 40/400, 80/400, 40/800 and 80/800 nM, respectively, for HCV-796 and SCH 503034. The DMSO concentration in both drug-treated and control cells is 0.5% (v/v). Tissue culture plates are incubated in a 37° C. incubator containing 5% CO2. When cells reach about 80% confluence (about 2-3 days), cells are passaged in a 1:3 dilution and the old medium is replaced with fresh medium containing the compounds at the respective concentrations. Cell pellets containing […] are collected during each passage, and monitored for HCV RNA using quantitative Taqman RT-PCR as described above. […]
Drug susceptibility of the replicon variants is evaluated as previously described in the section “Intracellular antiviral activities in HCV Replicon”. […] The plate is incubated for 72 hours at 37° C. and 5% CO2 before quantification of HCV and GAPDH RNAs. The amounts of HCV, rRNA and GAPDH RNAs are quantified using the TaqMan RT-PCR assay as described above (see Quantification of HCV and 18S Ribosomal RNAs).

[2] = tested on: GAPDH RNA, Huh7-1a replicon cells; assay: GAPDH RNA in genotype 1a (H77) replicon cells; assay type: cell-based; settings: Homo sapiens, 72 h, read-out: GAPDH EC50
Method: (§1) HCV genotype 1b, BB7 replicon-containing cell line is derived from a human hepatoma cell line (Huh7). A genotype 1a (H77 isolate; GenBank Accession #AF009606) is derived from replicon-containing cell line (Huh7-1a). The cell lines are cultured at 37° C. and 5% CO2 in Dulbecco's Modified Eagle Media (D-MEM; Invitrogen #11965-084) containing 10% fetal bovine serum (FBS; HyClone #SH300070) supplemented with 1% penicillin/streptomycin (Invitrogen #15140-122), 1% non-essential amino acids (Invitrogen #11140-050), 0.66 mM HEPES buffer, pH 7.55 (Invitrogen #15630-080), and 1 mg/mL G418 (Geneticin®, Invitrogen #11811-031 or #10131-027). Genotype 1a and genotype 1b replicon-containing cell lines contain approximately 1000 and 2000 RNA genome equivalents per cell, respectively, when maintained in a subconfluent monolayer in the presence of 1 mg/mL G418. For compound testing, G418 is eliminated and the FBS concentration is reduced to 2%.
(§2) Genotype 1b (BB7) and 1a (H77) cells are seeded in 96-well plates at a sub-confluent density (7000 cells/well) in medium containing 2% FBS without G418. […] The amounts of HCV, rRNA and GAPDH RNAs are quantified using the TaqMan RT-PCR assay.

[3] = tested on: GAPDH RNA, Huh7 BB7 replicon cells; assay: GAPDH RNA in genotype 1b (BB7) replicon cells; assay type: cell-based; settings: Homo sapiens, Huh-7, 72 h, read-out: GAPDH EC50
Method: as §1, §2

| SMILES | Selection of resistant replicon variants ([1]; 800 nM SCH 503034 alone) | EC50 [2] [µM] | EC50 [3] [µM] | Selection of resistant replicon variants ([1]; up to 80 nM HCV-796 alone) |
| --- | --- | --- | --- | --- |
| CC(C)(C)NC(=O)N[C@H](C(=O)N1C[C@H]2[C@@H]([C@H]1C(=O)NC(CC1CCC1)C(=O)C(N)=O)C2(C)C)C(C)(C)C (stereo partly drawn) [SCH 503034, (1R,5S)—N-[3-amino-1-(cyclobutylmethyl)-2,3-dioxopropyl]-3-[2(S)-[[[(1,1-dimethylethyl)amino]carbonyl]amino]-3,3-dimethyl-1-oxobutyl]-6,6-dimethyl-3-azabicyclo[3.1.0]hexan-2(S)-carboxamide] | selection of replicon variants that have reduced susceptibility | > 3.2 | > 3.2 |  |
| CNC(=O)c1c(-c2ccc(F)cc2)oc2cc(N(CCO)S(C)(=O)=O)c(C3CC3)cc12 [HCV-796, 5-cyclopropyl-2-(4-fluoro-phenyl)-6-[(2-hydroxy-ethyl)-methanesulfonyl-amino]-benzofuran-3-carboxylic acid methylamide] |  | > 5.6 | > 2.43 | selection of replicon variants that have reduced susceptibility |

Source: patent US20070224167A1, “Novel HCV inhibitor combinations and methods” (priority 2006, published 2007)
